Data taken from PubChem BioAssay AID2305 (GlaxoSmithKline (GSK), 2010).
Values joined by “and” are separate entries in the source; they are usually repeats but may differ in a detail not shown here. Identical values can stand only once.

Tested on: P. falciparum 3D7 growth, pLDH absorbance
Assay: blood-stage malaria parasite growth potency – strain 3D7, dose response (AID 2305)

Row | Compound | IC50
1 | COc1ccc(Nc2ncc(C#N)c(Nc3ccccc3C(N)=O)n2)cc1N1CCN(C)CC1 | 0.14 µM
2 | CCOC(=O)c1ccc(COc2ccc(C)nc2)cc1 | 0.54 µM
3 | CCNc1cc(C(=O)N[C@@H](Cc2ccccc2)[C@H](O)CNC2CCCCC2)cc(N2CCCCS2(=O)=O)c1 | 0.17 µM
4 | Cc1cccc2[nH]c(-c3ccc(-c4ccc(NC(=O)CN5CCN(C)CC5)cc4)s3)nc12 | 1.02 µM
5 | COc1cccc(CNC[C@@H](O)[C@H](Cc2ccccc2)NC(=O)c2cc(NC(C)C)cc(N3CCCCS3(=O)=O)c2)c1 | 0.78 µM
6 | COc1ccc(-c2cc(C(=O)N[C@@H](CC3CCCCC3)C(=O)NCCN3CCCC3)ccc2O)cc1 | 0.87 µM
7 | CN(CCCCN)Cc1ccc(-c2ccc(Cl)cc2)cc1 | 0.88 µM
8 | CC(CCc1ccccc1)NCC(O)c1ccc2c3c(cccc13)S(=O)(=O)N2C (stereo not drawn) | 0.63 µM
9 | CN(C)CCNCc1ccc(-c2ccc3c(Nc4ccc(F)cc4Cl)ccnc3c2)o1 | 0.14 µM
10 | CC1(CCCCN2CCC(c3c[nH]c4cnccc34)CC2)C(=O)Nc2cccc(Cl)c21 (stereo not drawn) | 0.87 µM
11 | O=S(=O)(Nc1cccc(CCN2CCC(N3CCCCC3)CC2)c1)c1cccc2ccccc12 | 0.94 µM
12 | CC(C)CNCc1cccc(-c2cccc(CN(CCCN3CCN(C)CC3)C(=O)CCC3CCCC3)c2)c1 | 0.62 µM
13 | Cc1cc(-c2cccc(CNCCc3ccc(Cl)cc3)c2)cnc1N | 1.1 µM
14 | CC(C)NCc1ccc(-c2cccc(NC(=O)c3ccc(Cl)cc3)c2)cc1 | 0.29 µM
15 | COc1ccccc1C(=O)C1CCCN(C(=O)c2ccccc2C(F)(F)F)C1 (stereo not drawn) | 0.6 µM
16 | Cc1ccccc1OCC(O)CN1CCC(C2CCN(CC(O)COc3ccccc3C)CC2)CC1 (stereo not drawn) | 0.31 µM
17 | N#CCCN1CCN(Cc2ccc(-c3ccc(-c4nc5ccc(F)cc5[nH]4)s3)cc2)CC1 | 0.66 µM
18 | CCCc1ccc(NC(=O)c2ccc(CN3CCCN(CC4CCCCC4)CC3)cc2)cc1 | 0.52 µM
19 | Cc1cc(NC2CCN(Cc3ccccc3)CC2)nc(NCCCCc2ccccc2)n1 | 0.38 µM
20 | COc1ccc(Cl)cc1NC(=O)C(C)Nc1ccc(-c2ccccc2)cc1 (stereo not drawn) | 0.56 µM
21 | N#Cc1cccc(C(=O)Nc2cccc(-c3ccc(CN4CCCC4)cc3)c2)c1 | 0.7 µM
22 | COc1ccc(C2CC(=O)C3=C(C2)NC(C)=C(C(=O)OC(C)C)C3c2ccccc2F)cc1OC (stereo not drawn) | 0.06 µM
23 | O=C(/C=C/c1ccc(F)cc1)NC1CCC(CCN2CCCN(c3ccc(C(F)(F)F)cn3)CC2)CC1 (stereo not drawn) | 1.08 µM
24 | O=[N+]([O-])c1ccc(NC(=NC2CCCc3ccccc32)Nc2ccccc2Br)c(O)c1 (stereo not drawn) | 0.92 µM
25 | CNc1ccc(CNCc2ccc(-c3ccc(-c4nc5c(C)cccc5[nH]4)s3)cc2)cc1 | 0.66 µM

Row | Compound | IC50
26 | COc1cc(O)c2c(=O)c(OC)c(-c3cccc(Cl)c3OC3O[C@H](CO)[C@@H](O)[C@H](O)[C@H]3O)oc2c1OC (stereo partly drawn) | 0.77 µM
27 | O=C(NCC1CCN(Cc2ccc3c(c2)OCCO3)C1)c1cc(-c2ccccc2F)cs1 (stereo not drawn) | 1.02 µM
28 | CC(NC(=O)NC1CCC(CCN2CCCc3ccccc32)CC1)c1cccc2ccccc12 (stereo not drawn) | 1.02 µM
29 | O=C(NCCCN1CCOCC1)c1ccc(-c2cccc(NC(=O)c3ccc(Cl)c(Cl)c3)c2)cc1 | 0.68 µM
30 | Cc1ccc(Nc2nccc(NCC(O)c3ccc(C(F)(F)F)cc3)n2)cc1 (stereo not drawn) | 0.49 µM
31 | COc1ccccc1C(=O)Nc1cccc(N2CCC(NCc3ccc(-n4cccn4)cc3)CC2)c1 | 1.19 µM
32 | Cc1cc(N(C)C2CCN(C)C2)nc(Nc2ccc(Cl)cc2)n1 (stereo not drawn) | 0.34 µM
33 | CCN(CC)CCOc1cc2c(cc1Br)-c1cc(Br)c(OCCN(CC)CC)cc1C2=NO | 1.09 µM
34 | CC(CN(C)C)C(=O)Nc1ccc(-c2ccc(-c3nc4ccccc4[nH]3)s2)cc1 (stereo not drawn) | 0.72 µM
35 | CS(=O)(=O)c1ccc(-c2cnc(N)c(-c3cccc(O)c3)c2)cc1 | 0.69 µM
36 | Cc1cc(N2CCC(C)CC2)nc2cc(O)ccc12 | 1.18 µM
37 | COc1ccc(CN2CCC(NCc3cccc([N+](=O)[O-])c3)CC2)cc1 | 0.91 µM
38 | Cc1ccc(-c2nc3ccc(C(=O)NC4CCC(N5CCCc6ccc(C#N)cc6C5)CC4)cc3[nH]2)cc1 (stereo not drawn) | 1.36 µM
39 | COc1cc(Cc2cnc(N)nc2N)cc(OC)c1OCCNC(=O)[C@@H](N)CCC(=O)O | 0.84 µM
40 | O=S(=O)(c1ccccc1C(F)(F)F)C1C[C@H]2CC[C@@H](C1)N2S(=O)(=O)c1ccc(Cl)c(C(F)(F)F)c1 (stereo partly drawn) | 0.71 µM
41 | CN1CCN(CC(=O)Nc2ccc(-c3ccc(-c4nc5ccc(C(F)(F)F)cc5[nH]4)cc3)cc2)CC1 | 0.42 µM
42 | Nc1nc2cccc3ccc4cccc1c4c32 | 0.92 µM
43 | O=C(NCCN1CCCC1)c1cccc(-c2ccc(-c3nc4ccc(F)cc4[nH]3)cc2)c1 | 0.72 µM
44 | Clc1ccc(CNc2ccnc(NCCc3coc4ccccc34)n2)c(Cl)c1 | 1.17 µM
45 | O=C(NC1CCC(CN2CCC(c3c[nH]c4ccccc34)CC2)CC1)c1csc(-c2ccc(C(F)(F)F)cc2Cl)n1 (stereo not drawn) | 0.83 µM
46 | CCc1ccc(CN2CCC(CN(C(=O)c3ccccc3)c3ccc(Cl)cc3)CC2)cc1 | 0.99 µM
47 | O=C(/C=C/c1cccc(Cl)c1)Nc1ccc2nc(CN3CCCC3)ccc2c1 | 0.26 µM
48 | NCC1CCCN1Cc1cccc(-c2ccc(-c3nc4ccc(C(F)(F)F)cc4[nH]3)s2)c1 (stereo not drawn) | 0.75 µM
49 | CNC(=O)NC1=NC(C)(C)N(OCCCOc2cc(Cl)c(Cl)cc2Cl)C(N)=N1 | 0.93 µM
50 | Oc1ccc(C2CNCCc3c2cc(O)c(OCc2ccccc2)c3Cl)cc1 (stereo not drawn) | 0.72 µM

Row | Compound | IC50
51 | c1ccc(Oc2ccc(Nc3ccnc4ccc(-c5ccco5)cc34)cc2)cc1 | 0.93 µM
52 | CCN(CCCN1CCCCC1)c1cc(C)nc(Nc2ccc(OC)cc2)n1 | 0.62 µM
53 | Cc1cccc2c(N=NC(=S)N(C)C)c(O)[nH]c12 | 0.75 µM
54 | COc1ccc2ncc(F)c(CCN3C[C@H](CNCc4nc5c(cc4Cl)OCC(=O)N5)[C@H](O)C3)c2n1 | 0.95 µM and 1.28 µM and 0.83 µM
55 | O=[N+]([O-])c1ccc(Oc2c(Cl)cc(S(=O)(=O)N3CCC(CN4CCC(c5c[nH]c6ccccc56)CC4)CC3)cc2Cl)c(Cl)c1 | 1 µM
56 | CC(=O)Oc1c(C(=O)C2CCC(C(C)(C)C)CC2)c(OC(C)=O)c2ccccc2c1OC(C)=O (stereo not drawn) | 0.27 µM
57 | CC(C)c1ccc(NC(=O)c2cccc(CN3CCCN(Cc4cccc(C#N)c4)CC3)c2)cc1 | 0.95 µM
58 | CN(C)c1ccc(CN2CCCCC(NC(=O)c3cc(-c4ccccc4F)cs3)C2)cc1 (stereo not drawn) | 0.83 µM
59 | Cc1cc(C(=O)Nc2ccc(OCc3ccccc3)cc2)on1 | 0.99 µM
60 | CCN1CCN(c2ccc(Nc3ccnc4ccc(Br)cc34)cc2)CC1 | 0.3 µM
61 | Cc1cc(N[C@@H](Cc2ccccc2)C(=O)NCc2cccc(F)c2)nc(NCCc2ccc(F)cc2)n1 | 0.65 µM
62 | CCCN(CC(=O)NCCc1ccccc1)c1ccc(C#N)c2ccccc12 | 0.5 µM
63 | COc1ccc(Nc2nccc(-c3cccc(NC(=O)c4cc5cc(F)ccc5[nH]4)c3)n2)cc1 | 1.03 µM
64 | COc1cccc(-c2cc(C(=O)Nc3ccc4nc(-c5ccccc5)[nH]c4c3)[nH]n2)c1 | 0.84 µM
65 | COc1cc2[nH]c(-c3ccc(O)cc3)c(C)c(=O)c2c(OC)c1OC | 0.72 µM
66 | Cc1c(Cn2ncc(N3C[C@@H](C)N[C@@H](C)C3)c(Cl)c2=O)cccc1NC(=O)Nc1ccc(-c2ccccc2)cc1 | 0.6 µM
67 | CCC(=O)Nc1ccc(Nc2nc(C)cc(N3CCCC3)n2)cc1 | 1.32 µM
68 | COc1cccc(-c2cc(C(F)(F)F)n3ncc(C(=O)Nc4cc(Cl)ccc4O)c3n2)c1 | 0.2 µM
69 | Cc1ccc(Nc2nc3cc(Nc4ccnc(Nc5ccc(CS(C)(=O)=O)cc5)n4)ccc3o2)cc1 | 0.76 µM
70 | CC(Nc1ccc2c(c1)OCCO2)C(=O)Nc1cc(C(F)(F)F)ccc1N1CCOCC1 (stereo not drawn) | 0.41 µM
71 | Cc1cc(N[C@@H](Cc2ccccc2)C(=O)NCc2cccs2)nc(NCCc2ccccc2)n1 | 0.79 µM
72 | COc1ccc2nc(C)cc(Nc3ccc(Oc4ccc(Cl)cc4)c(Cl)c3)c2c1 | 0.19 µM
73 | COc1ccc2nccc([C@@H](O)CN3CCC(NCc4cc5cc(OC(F)(F)F)ccc5[nH]4)CC3)c2c1 | 0.13 µM
74 | CN1CCN(C(C(=O)NCc2cc(Cl)cc(Cl)c2)c2ccc(Nc3cccc(C(F)(F)F)c3)cc2)CC1 (stereo not drawn) | 1.12 µM
75 | O=C(Nc1ccc(SC(F)(F)F)cc1)Nc1ccnc2ccccc12 | 0.75 µM

Row | Compound | IC50
76 | Cc1cccc(C)c1N1CCN(C2CCC(NC(=O)/C=C/c3ccccc3)CC2)CC1 (stereo not drawn) | 1.18 µM
77 | CCOc1cc2ncnc(Nc3cc(Cl)c(Cl)c(Cl)c3)c2cc1OCC | 0.2 µM
78 | Cn1c(-c2ccccc2)cc2c3c(N)nc(N)nc3ccc21 | 0.89 µM
79 | COc1cccc(C=NNc2cc(C)nc3c(OC)cccc23)c1 | 0.58 µM
80 | CCCCOc1ccc(/C=C/c2ccc(-c3c(C)[nH]c(C)c(Cl)c3=O)s2)cc1 | 0.4 µM
81 | Cc1nc2ccc(S(=O)(=O)Nc3ccc(C(=O)N[C@@H](CCC(=O)O)C(=O)O)cc3)cc2c(=O)[nH]1 | 1.01 µM
82 | O=C(NCc1ccccc1S(=O)c1ccccc1CO)C(F)(F)F (stereo not drawn) | 0.18 µM
83 | O=C(Nc1ccc2c(c1)OCO2)NC1CCN(c2ccnc(Nc3ccc(F)cc3)n2)C1 (stereo not drawn) | 0.74 µM
84 | NC(N)=NCC=C(c1ccccc1)c1ccccc1 | 0.99 µM
85 | CCc1ccc(C2=Nn3c(nnc3-c3cccs3)SC2)cc1 | 1.29 µM
86 | Cn1c(C2C[C@H]3CC[C@H](C2)N3CC2CCC(NC(=O)/C=C/c3ccc(Cl)c(Cl)c3)CC2)nc2ccccc21 (stereo partly drawn) | 0.56 µM
87 | Cc1cc(Cl)c(S(=O)(=O)N2CCc3ccccc32)cc1OCC(=O)NC1CCCCC1 | 0.3 µM
88 | CC(=O)Nc1cccc(-c2cnc(N)c3cc(-c4ccc5c(c4)OCO5)ccc23)c1 | 0.49 µM
89 | CS(=O)(=O)c1ccc(CCNCc2ccc(-c3ccc(CN(C(=O)C4CC(=O)c5ccccc54)C4CCN(Cc5ccccc5)CC4)cc3)nc2)cc1 (stereo not drawn) | 0.59 µM
90 | COc1ccc(CNCc2ccccc2)cc1-c1ccc(OC)c(S(=O)(=O)NCCN2CCCC2)c1 | 0.83 µM
91 | Nc1nc(Nc2ccc(Cl)cc2)nc2ccccc12 | 0.73 µM
92 | CN(C)CCCOc1c(C(C)(C)C)cc(-c2cc(C(C)(C)C)c(OCCCN(C)C)c(C(C)(C)C)c2)cc1C(C)(C)C | 0.27 µM
93 | Clc1ccc(C=NNc2ccnc3ccccc23)cc1 | 0.72 µM
94 | CS(=O)(=O)c1ccc(CCNCc2ccc(-c3ccc(CN(C(=O)C4CC(=O)c5ccccc54)C4Cc5ccccc5C4)cc3)nc2)cc1 (stereo not drawn) | 0.86 µM
95 | FC(F)(F)c1ccc2nc(-c3ccc(-c4ccc(CN5CCN(c6ccncc6)CC5)cc4)cc3)[nH]c2c1 | 0.06 µM
96 | CC(C)c1cc(Oc2c(I)cc(CCN=C(N)N)cc2I)ccc1O | 0.79 µM
97 | CCCN(Cc1nnc(-c2ccco2)o1)C(=O)C1CCN(c2ncc(C(F)(F)F)cc2Cl)CC1 | 0.69 µM
98 | CC(C)(C)C1CC(=O)C[C@@H]2C(=O)N(C3CCCCC3)C(=O)[C@H]12 (stereo partly drawn) | 0.42 µM
